Reference: patent publication EP0690048A1, “Ortho-amino substituted benzoylguanidines, process for their preparation, their use as medicine or diagnostic and medicines containing them” (HOECHST AKTIENGESELLSCHAFT, priority 1994, dated 1996)
pIC50: −log10 of the molar value. Where a name gives a salt, the structure may show the parent alone.

Molecular target: T1, Na⁺/H⁺-Exchangers von Kaninchenerythrocyten (Oryctolagus cuniculus, UniProt P23791)
T1 construct: den Na⁺-Influx in die Erythrocyten via Na⁺/H⁺-Austausch flammenphotometrisch bestimmen zu können; endogenous in cells; host or cells: erythrocytes in blood from the ear arteries of cholesterol-fed White New Zealand rabbits
T1 sequence (P23791 whole entry): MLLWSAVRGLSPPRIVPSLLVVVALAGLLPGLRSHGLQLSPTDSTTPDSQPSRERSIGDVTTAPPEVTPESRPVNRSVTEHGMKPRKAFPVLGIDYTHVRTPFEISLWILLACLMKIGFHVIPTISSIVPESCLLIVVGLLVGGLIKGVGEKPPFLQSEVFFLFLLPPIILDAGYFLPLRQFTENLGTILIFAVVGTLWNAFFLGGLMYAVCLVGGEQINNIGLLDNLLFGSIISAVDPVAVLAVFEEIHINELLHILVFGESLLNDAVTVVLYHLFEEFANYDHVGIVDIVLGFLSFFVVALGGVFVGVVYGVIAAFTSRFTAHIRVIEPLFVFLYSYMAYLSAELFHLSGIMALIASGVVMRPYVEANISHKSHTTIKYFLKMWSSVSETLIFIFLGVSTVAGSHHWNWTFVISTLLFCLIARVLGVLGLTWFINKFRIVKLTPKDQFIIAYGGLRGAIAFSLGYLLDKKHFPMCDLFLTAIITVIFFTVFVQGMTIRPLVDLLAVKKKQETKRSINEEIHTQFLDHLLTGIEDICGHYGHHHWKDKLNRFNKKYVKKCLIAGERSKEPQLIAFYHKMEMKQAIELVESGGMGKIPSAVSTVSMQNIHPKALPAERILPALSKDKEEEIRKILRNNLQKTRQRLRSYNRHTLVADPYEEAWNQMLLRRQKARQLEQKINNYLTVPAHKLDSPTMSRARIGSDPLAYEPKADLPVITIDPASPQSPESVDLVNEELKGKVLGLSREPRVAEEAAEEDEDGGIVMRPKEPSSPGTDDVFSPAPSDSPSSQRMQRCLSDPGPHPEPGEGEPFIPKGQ
Experiment: Inhibition of the Na+/H+ exchanger of rabbit erythrocytes (amiloride-sensitive sodium influx, flame photometry)
Assay type: cell-based, Kaninchen
Settings: Inhibition des Na⁺/H⁺-Exchangers, hyperosmolares Salz-Sucrose-Medium, pH 7,4, 37°C, read-out: IC₅₀
Text: Inhibition des Na⁺/H⁺-Exchangers von Kaninchenerythrocyten
Weiße Neuseeland-Kaninchen (Ivanovas) erhielten eine Standard-Diät mit 2% Cholesterin für sechs Wochen, um den Na⁺/H⁺-Austausch zu aktivieren und so den Na⁺-Influx in die Erythrocyten via Na⁺/H⁺-Austausch flammenphotometrisch bestimmen zu können. Das Blut wurde den Ohrarterien entnommen und durch 25 IE Kalium-Heparin ungerinnbar gemacht. Ein Teil jeder Probe wurde zur Doppelbestimmung des Hämatokrits durch Zentrifugieren benutzt. Aliquots von jeweils 100 µl dienten zur Messung des Na⁺-Ausgangsgehalts der Erythrocyten.
Um den Amilorid-sensitiven Natrium-Influx zu bestimmen, wurden 100 µl jeder Blutprobe in jeweils 5 ml eines hyperosmolaren Salz-Sucrose-Mediums (mmol/l: 140 NaCl, 3 KCl, 150 Sucrose, 0,1 Ouabain, 20 Tris-hydroxymethylaminomethan) bei pH 7,4 und 37°C inkubiert. Die Erythrozyten wurden danach dreimal mit eiskalter MgCl₂-Ouabain-Lösung (mmol/l: 112 MgCl₂, 0,1 Ouabain) gewaschen und in 2,0 ml destilliertem Wasser hämolysiert. Der intrazelluläre Natriumgehalt wurde flammenphotometrisch bestimmt.
Der Na⁺-Nettoinflux wurde aus der Differenz zwischen Natrium-Ausgangswerten und dem Natriumgehalt der Erythrocyten nach Inkubation errechnet. Der Amilorid-hemmbare Natrium-Influx ergab sich aus der Differenz des Natriumgehalts der Erythrocyten nach Inkubation mit und ohne Amilorid 3 x 10⁻⁴ mol/l. Auf diese Weise wurde auch bei den erfindungsgemäßen Verbindungen verfahren.

| SMILES | pIC50 |
| --- | --- |
| NC(N)=NC(=O)c1cc(S(N)(=O)=O)c(Cl)cc1N [Beispiel 1, 2-Amino-4-chloro-5-sulfamoyl-benzoylguanidin-dihydrochlorid] | 5.52 to 5.70 |
| NC(N)=NC(=O)c1cc(Cl)ccc1N [Beispiel 9, 2-Amino-5-chloro-benzoylguanidin-dihydrochlorid] | 5.70 to 6.00 |
| NC(N)=NC(=O)c1cc(Br)c(Br)cc1N [Beispiel 11, 2-Amino-4,5-dibromo-benzoylguanidin] | 7.00 |
| CN(C)c1ccc(Cl)cc1C(=O)N=C(N)N [Beispiel 12, 2-Dimethylamino-5-chloro-benzoylguanidin-dihydrochlorid] | 5.70 to 6.00 |
